Laboratory results: patent USRE47302E1 (ONYX THERAPEUTICS INC., priority 2013, dated 2019)
In brackets after ≈: the same amount, converted by molar mass. Read-outs that look alike come from different tables or passages of the source.

Columns and labels:
[1] = Solubility pH 7; conditions: for solubility: pH 7, aqueous buffer
[2] = target: T1, immunoproteasome subunit LMP7 (Homo sapiens, UniProt P28062); assay: Proteasome active-site ELISA (ProCISE), LMP7, MOLT-4 lysate; type: biochemical
T1 construct: Lysate from the human acute lymphoblastic leukemia cell line, MOLT-4; endogenous in cells; host or cells: MOLT-4
Experimental: (§1) Test compounds were serially diluted in DMSO at 100× concentration, then diluted to 10× in aqueous hypotonic lysis buffer. Lysate from the human acute lymphoblastic leukemia cell line, MOLT-4, was treated for 1 hour at 25° C. with compound at a final 1× concentration. […] Following, lysate was denatured in guanidine hydrochloride, and subunits bound to probe were isolated with streptavidin-conjugated sepharose beads. Individual subunits (e.g., β5, LMP7, LMP2, MECL-1) were probed with subunit-specific primary antibodies, followed by HRP-conjugated secondary antibodies. A chemiluminescent substrate was used to generate signal associated with HRP binding, which was detected on a plate reader. Luminescent signal was normalized to protein content, then, percent activity calculated relative to DMSO-treated controls to generate IC50 curves.

[3] = target: T2, proteasome subunit β5 (beta5) (Homo sapiens, UniProt P28074); assay: Proteasome active-site ELISA (ProCISE), beta5, MOLT-4 lysate; type: biochemical
T2 construct: Lysate from the human acute lymphoblastic leukemia cell line, MOLT-4; endogenous in cells; host or cells: MOLT-4
Experimental: as §1

[4] = MOLT4 lysate, 1 h continuous treatment, 25° C.
[5] = MOLT4 lysate, human, 1 h continuous treatment, 25° C.
[6] = read-out: ProCISE LMP7 MOLT4 lysate Hu 1 h CONT: IC50, 1 h continuous treatment, 25° C.
[7] = read-out: ProCISE beta5 MOLT4 lysate Hu 1 h CONT: IC50, MOLT4 lysate, human, 1 h continuous treatment, 25° C.

Compound: COc1ccc(C[C@H](NC(=O)[C@H](C)NC(=O)CN2CCOCC2)C(=O)N[C@@H](CC2CCC2)C(=O)[C@@]2(C)CO2)cc1 [Compound C-1004, (S)-N-((S)-3-cyclobutyl-1-((R)-2-methyloxiran-2-yl)-1-oxopropan-2-yl)-3-(4-methoxyphenyl)-2-((S)-2-(2-morpholinoacetamido)propanamido)propanamide]
- solubility [1]: 2500 µg/mL (≈ 4.47 mM)
- IC50 [2, 4]: 541 nM
- IC50 [3, 5]: 1870 nM

Compound: COc1ccc(C[C@H](NC(=O)[C@H](C)NC(=O)CN2CCOCC2)C(=O)N[C@@H](CC2CC2)C(=O)[C@@]2(C)CO2)cc1 [Compound C-1006, (S)-N-((S)-3-cyclopropyl-1-((R)-2-methyloxiran-2-yl)-1-oxopropan-2-yl)-3-(4-methoxyphenyl)-2-((S)-2-(2-morpholinoacetamido)propanamido)propanamide]
- solubility [1]: 2590 µg/mL (≈ 4.75 mM)
- IC50 [2, 4]: 5150 nM
- IC50 [3, 5]: 5240 nM

Compound: COc1ccc(C[C@H](NC(=O)[C@H](C)NC(=O)CN2CCOCC2)C(=O)N[C@@H](C[C@H]2CCCO2)C(=O)[C@@]2(C)CO2)cc1 [Compound C-1017, (S)-3-(4-methoxyphenyl)-N-((S)-1-((R)-2-methyloxhan-2-yl)-1-oxo-3-((R)-tetrahydrofuran-2-yl)propan-2-yl)-2-((S)-2-(2-morpholinoacetamido)propanamido)propanamide]
- solubility [1]: 11700 µg/mL (≈ 20.4 mM)
- IC50 [2, 4]: 1090 nM
- IC50 [3, 5]: 21700 nM

Compound: COc1ccc(C[C@H](NC(=O)[C@H](C)NC(=O)CN2CCOCC2)C(=O)N[C@@H](CC2=CCOCC2)C(=O)[C@@]2(C)CO2)cc1 [Compound C-1020, (S)-N-((S)-3-(3,6-dihydro-2H-pyran-4-yl)-1-((R)-2-methyloxiran-2-yl)-1-oxopropan-2-yl)-3-(4-methoxyphenyl)-2-((S)-2-(2-morpholinoacetamido)propanamido)propanamide]
- solubility [1]: 6440 µg/mL (≈ 11 mM)
- IC50 [2, 4]: 1160 nM
- IC50 [3, 5]: 45000 nM

Compound: COc1ccc(C[C@H](NC(=O)[C@H](C)NC(=O)CN2CCOCC2)C(=O)N[C@@H](CC2=CCCC2)C(=O)[C@H]2CO2)cc1 [Compound C-1038, (S)-N-((S)-3-(cyclopent-1-en-1-yl)-1-((R)-oxiran-2-yl)-1-oxopropan-2-yl)-3-(4-methoxyphenyl)-2-((S)-2-(2-morpholinoacetamido)propanamido)propanamide]
- solubility [1]: 230 µg/mL (≈ 0.414 mM)
- IC50 [2, 4]: 9.07 nM
- IC50 [3, 5]: 289 nM

Compound: C[C@H](NC(=O)CN1CCOCC1)C(=O)N[C@@H](Cc1ccc2c(c1)OCO2)C(=O)N[C@@H](CC1CCCC1)C(=O)[C@H]1CO1 [Compound C-1060, (S)-3-(benzo[d][1,3]dioxol-5-yl)-N-((S)-3-cyclopentyl-1-((R)-oxiran-2-yl)-1-oxopropan-2-yl)-2-((S)-2-(2-morpholinoacetamido)propanamido)propanamide]
- solubility [1]: 1380 µg/mL (≈ 2.4 mM)
- IC50 [2, 4]: 12.4 nM
- IC50 [3, 5]: 423 nM

Compound: COc1ccc(C[C@H](NC(=O)[C@@H](C)NC(=O)[C@H]2CC[C@H](O)CC2)C(=O)N[C@@H](CC2=CCCC2)C(=O)[C@@]2(C)CO2)cc1O [Compound C-1065, (1r,4R)-N-((R)-1-(((S)-1-(((S)-3-(cyclopent-1-en-1-yl)-1-((R)-2-methyloxiran-2-yl)-1-oxopropan-2-yl)amino)-3-(3-hydroxy-4-methoxyphenyl)-1-oxopropan-2-yl)amino)-1-oxopropan-2-yl)-4-hydroxycyclohexanecarboxamide]
- solubility [1]: 2660 µg/mL (≈ 4.55 mM)
- IC50 [2, 4]: 34.6 nM
- IC50 [3, 5]: 1480 nM

Compound: COc1ccc(C[C@H](NC(=O)[C@H](C)NC(=O)CN2CCOCC2)C(=O)N[C@@H](CC2CC=CC2)C(=O)[C@@]2(C)CO2)cc1 [Compound C-1066, (S)-N-((S)-3-(cyclopent-3-en-1-yl)-1-((R)-2-methyloxiran-2-yl)-1-oxopropan-2-yl)-3-(4-methoxyphenyl)-2-((S)-2-(2-morpholinoacetamido)propanamido)propanamide]
- solubility [1]: 3200 µg/mL (≈ 5.6 mM)
- IC50 [2, 4]: 47.1 nM
- IC50 [3, 5]: 335 nM

Compound: C[C@H](NC(=O)CN1CCOCC1)C(=O)N[C@@H](Cc1ccc2[nH]ncc2c1)C(=O)N[C@@H](CC1CCCC1)C(=O)[C@@]1(C)CO1 [Compound C-1070, (S)-N-((S)-3-cyclopentyl-1-((R)-2-methyloxiran-2-yl)-1-oxopropan-2-yl)-3-(1H-indazol-5-yl)-2-((S)-2-(2-morpholinoacetamido)propanamido)propanamide]
- solubility [1]: 2140 µg/mL (≈ 3.67 mM)
- IC50 [2, 4]: 209 nM
- IC50 [3, 5]: 1810 nM

Compound: COc1ccc(C[C@H](NC(=O)[C@H](C)NC(=O)CN2CCOCC2)C(=O)N[C@@H](CC2CCCC2)C(=O)[C@H]2CO2)cc1OC [Compound C-1071, (S)-N-((S)-3-cyclopentyl-1-((R)-oxiran-2-yl)-1-oxopropan-2-yl)-3-(3,4-dimethoxyphenyl)-2-((S)-2-(2-morpholinoacetamido)propanamido)propanamide]
- solubility [1]: 4300 µg/mL (≈ 7.3 mM)
- IC50 [2, 4]: 106 nM
- IC50 [3, 5]: 3890 nM

Compound: COc1ccc(C[C@H](NC(=O)[C@@H](C)NC(=O)[C@H]2CC[C@H](O)CC2)C(=O)N[C@@H](CC2CCCC2)C(=O)[C@@]2(C)CO2)cc1O [Compound C-1072, (1r,4R)-N-((R)-1-(((S)-1-(((S)-3-cyclopentyl-1-((R)-2-methyloxiran-2-yl)-1-oxopropan-2-yl)amino)-3-(3-hydroxy-4-methoxyphenyl)-1-oxopropan-2-yl)amino)-1-oxopropan-2-yl)-4-hydroxycyclohexanecarboxamide]
- Solubility pH 7 (μg/mL) ([1]; pH 7): 4742.65 μg/mL
- IC50 [2, 6]: 39.7 nM
- IC50 [3, 7]: 3390 nM

Compound: COc1ccc(C[C@H](NC(=O)[C@@H](C)NC(=O)[C@H]2CC[C@H](O)CC2)C(=O)N[C@@H](CC2CC=CC2)C(=O)[C@@]2(C)CO2)cc1 [Compound C-1074, (1r,4R)-N-((R)-1-(((S)-1-(((S)-3-(cyclopent-3-en-1-yl)-1-((R)-2-methyloxiran-2-yl)-1-oxopropan-2-yl)amino)-3-(4-methoxyphenyl)-1-oxopropan-2-yl)amino)-1-oxopropan-2-yl)-4-hydroxycyclohexanecarboxamide]
- solubility [1]: 1150 µg/mL (≈ 2.02 mM)
- IC50 [2, 4]: 26.2 nM
- IC50 [3]: 778 nM

Compound: COc1ccc(C[C@H](NC(=O)[C@@H](C)NC(=O)[C@H]2CC[C@@H](O)C2)C(=O)N[C@@H](CC2CCCC2)C(=O)[C@@]2(C)CO2)cc1 [Compound C-1075, (1S,3R)-N-((R)-1-(((S)-1-(((S)-3-cyclopentyl-1-((R)-2-methyloxiran-2-yl)-1-oxopropan-2-yl)amino)-3-(4-methoxyphenyl)-1-oxopropan-2-yl)amino)-1-oxopropan-2-yl)-3-hydroxycyclopentanecarboxamide]
- solubility [1]: 1650 µg/mL (≈ 2.95 mM)
- IC50 [2, 4]: 92.1 nM
- IC50 [3, 5]: 788 nM

Compound: COc1ccc([C@@H](O)[C@H](NC(=O)[C@@H](C)NC(=O)[C@H]2CC[C@H](O)CC2)C(=O)N[C@@H](CC2CCCC2)C(=O)[C@@]2(C)CO2)cc1 [Compound C-1079, (1r,4R)-N-((R)-1-(((2S,3R)-1-(((S)-3-cyclopentyl-1-((R)-2-methyloxiran-2-yl)-1-oxopropan-2-yl)amino)-3-hydroxy-3-(4-methoxyphenyl)-1-oxopropan-2-yl)amino)-1-oxopropan-2-yl)-4-hydroxycyclohexanecarboxamide]
- solubility [1]: 2050 µg/mL (≈ 3.49 mM)
- IC50 [2, 4]: 34.6 nM
- IC50 [3, 5]: 2230 nM

Compound: COc1ccc([C@@H](O)[C@H](NC(=O)[C@H](C)NC(=O)CN2CCOCC2)C(=O)N[C@@H](CC2=CCCCC2)C(=O)[C@@]2(C)CO2)cc1 [Compound C-1082, (2S,3R)-N-((S)-3-(cyclohex-1-en-1-yl)-1-((R)-2-methyloxiran-2-yl)-1-oxopropan-2-yl)-3-hydroxy-3-(4-methoxyphenyl)-2-((S)-2-(2-morpholinoacetamido)propanamido)propanamide]
- solubility [1]: 6130 µg/mL (≈ 10.2 mM)
- IC50 [2, 4]: 86.6 nM
- IC50 [3, 5]: 3530 nM

Compound: COc1ccc([C@@H](O)[C@H](NC(=O)[C@H](C)NC(=O)CN2CCOCC2)C(=O)N[C@@H](CC2=CCCC2)C(=O)[C@@]2(C)CO2)cc1 [Compound C-1083, (2S,3R)-N-((S)-3-(cyclopent-1-en-1-yl)-1-((R)-2-methyloxiran-2-yl)-1-oxopropan-2-yl)-3-hydroxy-3-(4-methoxyphenyl)-2-((S)-2-(2-morpholinoacetamido)propanamido)propanamide]
- solubility [1]: 7070 µg/mL (≈ 12.1 mM)
- IC50 [2, 4]: 40.3 nM
- IC50 [3, 5]: 561 nM

Compound: COc1ccc(C[C@H](NC(=O)[C@H](C)NC(=O)CN2CCOCC2)C(=O)N[C@@H](CC2=CCCC2)C(=O)[C@@]2(C)CO2)cc1O [Compound C-1085, (S)-N-((S)-3-(cyclopent-1-en-1-yl)-1-((R)-2-methyloxiran-2-yl)-1-oxopropan-2-yl)-3-(3-hydroxy-4-methoxyphenyl)-2-((S)-2-(2-morpholinoacetamido)propanamido)propanamide]
- solubility [1]: 8190 µg/mL (≈ 14 mM)
- IC50 [2, 4]: 158 nM
- IC50 [3, 5]: 1840 nM

Compound: COc1ccc(C[C@H](NC(=O)[C@@H](COCc2ccccc2)NC(=O)CN2CCOCC2)C(=O)N[C@@H](Cc2ccccc2)C(=O)[C@@]2(C)CO2)cc1 [Compound C-1156]
- IC50 [2, 6]: 50.8 nM
- IC50 [3, 7]: 175 nM
